From patent US8192962B2, “Processes for detecting toxic substances” (Daikin Industries, Ltd., priority 2001, dated 2012)

System: Energy system protein genes
Assay: DNA chip mRNA expression in yeast, energy system protein genes (Table 4)
Type: cell-based, Saccharomyces cerevisiae S288C
How it was run: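 First, S288C yeast grown in YPD at 25° C. are dosed in log phase with one toxicant (growth-inhibiting, not lethal) for 2 h. Next, total RNA is extracted and poly(A) mRNA isolated and reverse-transcribed with Cy3/Cy5-dUTP. Finally, whole-genome chip fluorescence is read relative to unexposed cells.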

Question: What does the source list for `[Cl][Pb][Cl]` [(4), PbCl2]?
Answer: The level of expressed mRNA in the presence of chemical substance/The level of expressed mRNA in the absence of chemical substance (yeast gene YAL060W): 2.7; The level of expressed mRNA in the presence of chemical substance/The level of expressed mRNA in the absence of chemical substance (yeast gene YBL058W, cells incubated two hours with the chemical substance): 1.1; The level of expressed mRNA in the presence of chemical substance/The level of expressed mRNA in the absence of chemical substance (yeast gene YBL099W, cells incubated two hours with the chemical substance): 1.4; The level of expressed mRNA in the presence of chemical substance/The level of expressed mRNA in the absence of chemical substance (yeast gene YBR001C, cells incubated two hours with the chemical substance): 1.4; The level of expressed mRNA in the presence of chemical substance/The level of expressed mRNA in the absence of chemical substance (yeast gene YBR185C, cells incubated two hours with the chemical substance): 2.0; The level of expressed mRNA in the presence of chemical substance/The level of expressed mRNA in the absence of chemical substance (yeast gene YBR221C, cells incubated two hours with the chemical substance): 1.5; The level of expressed mRNA in the presence of chemical substance/The level of expressed mRNA in the absence of chemical substance (yeast gene YCL040W): 2.0; The level of expressed mRNA in the presence of chemical substance/The level of expressed mRNA in the absence of chemical substance (yeast gene YCR012W): 1.2; The level of expressed mRNA in the presence of chemical substance/The level of expressed mRNA in the absence of chemical substance (yeast gene YCR046C, cells incubated two hours with the chemical substance): 1.6; The level of expressed mRNA in the presence of chemical substance/The level of expressed mRNA in the absence of chemical substance (yeast gene YCR105W, cells incubated two hours with the chemical substance): 3.0; The level of expressed mRNA in the presence of chemical substance/The level of expressed mRNA in the absence of chemical substance (yeast gene YDL021W): 3.7; The level of expressed mRNA in the presence of chemical substance/The level of expressed mRNA in the absence of chemical substance (yeast gene YDL067C, cells incubated two hours with the chemical substance): 1.3; The level of expressed mRNA in the presence of chemical substance/The level of expressed mRNA in the absence of chemical substance (yeast gene YDL078C, cells incubated two hours with the chemical substance): 0.8; The level of expressed mRNA in the presence of chemical substance/The level of expressed mRNA in the absence of chemical substance (yeast gene YDL107W, cells incubated two hours with the chemical substance): 2.2; The level of expressed mRNA in the presence of chemical substance/The level of expressed mRNA in the absence of chemical substance (yeast gene YDL174C): 1.3; The level of expressed mRNA in the presence of chemical substance/The level of expressed mRNA in the absence of chemical substance (yeast gene YDL181W, cells incubated two hours with the chemical substance): 1.8; The level of expressed mRNA in the presence of chemical substance/The level of expressed mRNA in the absence of chemical substance (yeast gene YDR001C): 1.0; The level of expressed mRNA in the presence of chemical substance/The level of expressed mRNA in the absence of chemical substance (yeast gene YDR050C, cells incubated two hours with the chemical substance): 1.8; The level of expressed mRNA in the presence of chemical substance/The level of expressed mRNA in the absence of chemical substance (yeast gene YDR079W, cells incubated two hours with the chemical substance): 1.1; The level of expressed mRNA in the presence of chemical substance/The level of expressed mRNA in the absence of chemical substance (yeast gene YDR178W, cells incubated two hours with the chemical substance): 2.2; The level of expressed mRNA in the presence of chemical substance/The level of expressed mRNA in the absence of chemical substance (yeast gene YDR231C): 1.5; The level of expressed mRNA in the presence of chemical substance/The level of expressed mRNA in the absence of chemical substance (yeast gene YDR298C, cells incubated two hours with the chemical substance): 1.3; The level of expressed mRNA in the presence of chemical substance/The level of expressed mRNA in the absence of chemical substance (yeast gene YDR377W, cells incubated two hours with the chemical substance): 1.4; The level of expressed mRNA in the presence of chemical substance/The level of expressed mRNA in the absence of chemical substance (yeast gene YDR529C, cells incubated two hours with the chemical substance): 3.2; The level of expressed mRNA in the presence of chemical substance/The level of expressed mRNA in the absence of chemical substance (yeast gene YEL024W, cells incubated two hours with the chemical substance): 1.1; The level of expressed mRNA in the presence of chemical substance/The level of expressed mRNA in the absence of chemical substance (yeast gene YEL039C, cells incubated two hours with the chemical substance): 5.1; The level of expressed mRNA in the presence of chemical substance/The level of expressed mRNA in the absence of chemical substance (yeast gene YER178W): 1.0; The level of expressed mRNA in the presence of chemical substance/The level of expressed mRNA in the absence of chemical substance (yeast gene YFL057C): 1.8; The level of expressed mRNA in the presence of chemical substance/The level of expressed mRNA in the absence of chemical substance (yeast gene YFR053C): 2.2; The level of expressed mRNA in the presence of chemical substance/The level of expressed mRNA in the absence of chemical substance (yeast gene YGL018C, cells incubated two hours with the chemical substance): 3.0; The level of expressed mRNA in the presence of chemical substance/The level of expressed mRNA in the absence of chemical substance (yeast gene YGL062W): 0.6; The level of expressed mRNA in the presence of chemical substance/The level of expressed mRNA in the absence of chemical substance (yeast gene YGL187C, cells incubated two hours with the chemical substance): 1.8; The level of expressed mRNA in the presence of chemical substance/The level of expressed mRNA in the absence of chemical substance (yeast gene YGL191W, cells incubated two hours with the chemical substance): 1.8; The level of expressed mRNA in the presence of chemical substance/The level of expressed mRNA in the absence of chemical substance (yeast gene YGL205W, cells incubated two hours with the chemical substance): 0.8; The level of expressed mRNA in the presence of chemical substance/The level of expressed mRNA in the absence of chemical substance (yeast gene YGL256W, cells incubated two hours with the chemical substance): 1.3; The level of expressed mRNA in the presence of chemical substance/The level of expressed mRNA in the absence of chemical substance (yeast gene YGR043C): 7.9; The level of expressed mRNA in the presence of chemical substance/The level of expressed mRNA in the absence of chemical substance (yeast gene YGR062C, cells incubated two hours with the chemical substance, 25° C., YPD medium): 1.4; The level of expressed mRNA in the presence of chemical substance/The level of expressed mRNA in the absence of chemical substance (yeast gene YGR087C, cells incubated two hours with the chemical substance): 0.6; The level of expressed mRNA in the presence of chemical substance/The level of expressed mRNA in the absence of chemical substance (yeast gene YGR174C, cells incubated two hours with the chemical substance): 2.4; The level of expressed mRNA in the presence of chemical substance/The level of expressed mRNA in the absence of chemical substance (yeast gene YGR192C): 1.0; The level of expressed mRNA in the presence of chemical substance/The level of expressed mRNA in the absence of chemical substance (yeast gene YGR244C): 1.6; The level of expressed mRNA in the presence of chemical substance/The level of expressed mRNA in the absence of chemical substance (yeast gene YGR254W): 1.3; The level of expressed mRNA in the presence of chemical substance/The level of expressed mRNA in the absence of chemical substance (yeast gene YHR179W): 0.7; The level of expressed mRNA in the presence of chemical substance/The level of expressed mRNA in the absence of chemical substance (yeast gene YIL160C): 3.5; The level of expressed mRNA in the presence of chemical substance/The level of expressed mRNA in the absence of chemical substance (yeast gene YIR031C, cells incubated two hours with the chemical substance): 0.6; The level of expressed mRNA in the presence of chemical substance/The level of expressed mRNA in the absence of chemical substance (yeast gene YJL052W): 1.8; The level of expressed mRNA in the presence of chemical substance/The level of expressed mRNA in the absence of chemical substance (yeast gene YJL121C, cells incubated two hours with the chemical substance): 0.8; The level of expressed mRNA in the presence of chemical substance/The level of expressed mRNA in the absence of chemical substance (yeast gene YJL166W, cells incubated two hours with the chemical substance): 1.3; The level of expressed mRNA in the presence of chemical substance/The level of expressed mRNA in the absence of chemical substance (yeast gene YJL216C, cells incubated two hours with the chemical substance): 0.9; The level of expressed mRNA in the presence of chemical substance/The level of expressed mRNA in the absence of chemical substance (yeast gene YJR009C): 1.0
